Literature values as cited in PubChem BioAssay AID1259409 (Chemical Carcinogenesis Research Information System (CCRIS), 2018).

Tested on: rodent chemically induced tumor inhibition, incidence and multiplicity
Assay: CCRIS tumor inhibitor studies

Cc1cc(C(C)(C)C)c(O)c(C(C)(C)C)c1
tumour outcome (control, treated, inhibition, significance) (Carcinogen: 2-ACETYLAMINOFLUORENE, 53-96-3, Dose [Inhibitor]: 0, 3000 PPM IN DIET CONCURRENTLY WITH CARCINOGEN FOR STUDY DURATION (STUDY DURATION: 76 WK), Route [Inhibitor]: ORAL, Species: RAT, Strain/Sex: F344/MALE, Target Tissue: Type of Lesion: LIVER: HEPATOCELLULAR TUMOR, Dose [Carcinogen]: 50 PPM IN DIET FOR 76 WK): 20/20 (100%), 18/18 (100%), 0%, not calculated
outcome (Carcinogen: 2-ACETYLAMINOFLUORENE, 53-96-3, Dose [Inhibitor]: 0, 6000 PPM IN DIET CONCURRENTLY WITH CARCINOGEN FOR STUDY DURATION (STUDY DURATION: 76 WK), Route [Inhibitor]: ORAL, Species: RAT, Strain/Sex: F344/MALE, Target Tissue: Type of Lesion: LIVER: HEPATOCELLULAR CARCINOMA, Dose [Carcinogen]: 50 PPM IN DIET FOR 76 WK): 4.8, 0.7, 85%, p<0.05
tumour outcome (control, treated, inhibition, significance) (Carcinogen: 2-ACETYLAMINOFLUORENE, 53-96-3, Dose [Inhibitor]: 0, 6000 PPM IN DIET CONCURRENTLY WITH CARCINOGEN FOR STUDY DURATION (STUDY DURATION: 76 WK), Route [Inhibitor]: ORAL, Species: RAT, Strain/Sex: F344/MALE, Target Tissue: Type of Lesion: LIVER: HEPATOCELLULAR TUMOR, Dose [Carcinogen]: 50 PPM IN DIET FOR 76 WK): 20/20 (100%), 19/19 (100%), 0%, not calculated
tumour outcome (control, treated, inhibition, significance) (Carcinogen: 7,12-DIMETHYLBENZ(A)ANTHRACENE, 57-97-6, Dose [Inhibitor]: 0.3% IN DIET FROM WEANING ONWARD (STUDY DURATION: 6 MO AFTER CARCINOGEN ADMINISTRATION), Route [Inhibitor]: ORAL, Species: RAT, Strain/Sex: SPRAGUE-DAWLEY/FEMALE, Target Tissue: Type of Lesion: MAMMARY GLAND: ADENOCARCINOMA, Dose [Carcinogen]: 10 MG/RAT IN 1 ML STRIPPED CORN OIL, SINGLE DOSE ON D 50 FOLLOWING 24 HR FASTING PERIOD, Promoter: NONE USED): 100%, 55%, 45%, not calculated
tumour outcome (control, treated, inhibition, significance) (Carcinogen: 7,12-DIMETHYLBENZ(A)ANTHRACENE, 57-97-6, Dose [Inhibitor]: 2500 MG/KG IN DIET STARTING 1 WK AFTER CARCINOGEN AND CONTINUING FOR 30 WK (STUDY DURATION: 30 WK), Route [Inhibitor]: ORAL, Species: RAT, Strain/Sex: SPRAGUE-DAWLEY/FEMALE, Target Tissue: Type of Lesion: MAMMARY GLAND: TUMOR, Dose [Carcinogen]: 8 MG IN 1 ML SESAME OIL ADMINISTERED ONCE, Promoter: NONE USED): 88%, 68%, 23%, not significant
tumour outcome (control, treated, inhibition, significance) (Carcinogen: 7,12-DIMETHYLBENZ(A)ANTHRACENE, 57-97-6, Dose [Inhibitor]: 5000 MG/KG IN DIET STARTING 1 WK AFTER CARCINOGEN AND CONTINUING FOR 30 WK (STUDY DURATION: 30 WK), Route [Inhibitor]: ORAL, Species: RAT, Strain/Sex: SPRAGUE-DAWLEY/FEMALE, Target Tissue: Type of Lesion: MAMMARY GLAND: TUMOR, Dose [Carcinogen]: 8 MG IN 1 ML SESAME OIL ADMINISTERED ONCE, Promoter: NONE USED): 88%, 72%, 18%, not significant
tumour outcome (control, treated, inhibition, significance) (Carcinogen: 7,12-DIMETHYLBENZ(A)ANTHRACENE, 57-97-6, Dose [Inhibitor]: 5000 MG/KG IN DIET STARTING 2 WK BEFORE UNTIL 1 WK AFTER CARCINOGEN ADMINISTRATION (STUDY DURATION: 32 WK), Route [Inhibitor]: ORAL, Species: RAT, Strain/Sex: SPRAGUE-DAWLEY/FEMALE, Target Tissue: Type of Lesion: MAMMARY GLAND: TUMOR, Dose [Carcinogen]: 8 MG IN 1 ML SESAME OIL ADMINISTERED ONCE, Promoter: NONE USED): 88%, 52%, 41%, p<0.01
tumour outcome (control, treated, inhibition, significance) (Carcinogen: 7,12-DIMETHYLBENZ[A]ANTHRACENE, 57-97-6, Dose [Inhibitor]: 0, 200 MG/KG BW/D FOR 3 WK BEGINNING 2 WK PRIOR TO CARCINOGEN DOSE (STUDY DURATION: 24 WK), Route [Inhibitor]: INTRAPERITONEAL, Species: RAT, Strain/Sex: SPRAGUE-DAWLEY/FEMALE, Target Tissue: Type of Lesion: MAMMARY GLAND: TUMOR, Dose [Carcinogen]: 33.3 MG/KG BW IN 0.25 ML CORN OIL ONCE AT 50 D OF AGE, Promoter: NONE USED): 91%, 56%, 38%, not calculated
tumour outcome (control, treated, inhibition, significance) (Carcinogen: 7,12-DIMETHYLBENZ[A]ANTHRACENE, 57-97-6, Dose [Inhibitor]: 0.3% IN DIET, DAILY BEFORE, SIMULTANEOUS WITH, AND THROUGHOUT THE EXPERIMENT, HIGH POLYUNSATURATED FAT DIET (STUDY DURAT, Route [Inhibitor]: ORAL, Species: RAT, Strain/Sex: SPRAGUE-DAWLEY/FEMALE, Target Tissue: Type of Lesion: MAMMARY GLAND: PARENCHYMAL CARCINOMA, Dose [Carcinogen]: 10 MG IN 1 ML CORN OIL AT 50 D OF AGE ONCE, Promoter: NONE USED): 30/30 (100%), 16/30 (53%), 47%, not calculated
tumour outcome (control, treated, inhibition, significance) (Carcinogen: 7,12-DIMETHYLBENZ[A]ANTHRACENE, 57-97-6, Dose [Inhibitor]: 0.3% IN DIET, DAILY BEFORE, SIMULTANEOUS WITH, AND THROUGHOUT THE EXPERIMENT, HIGH SATURATED FAT DIET (STUDY DURATION: 3, Route [Inhibitor]: ORAL, Species: RAT, Strain/Sex: SPRAGUE-DAWLEY/FEMALE, Target Tissue: Type of Lesion: MAMMARY GLAND: PARENCHYMAL CARCINOMA, Dose [Carcinogen]: 10 MG IN 1 ML CORN OIL AT 50 D OF AGE ONCE, Promoter: NONE USED): 23/30 (77%), 9/30 (30%), 60%, not calculated
tumour outcome (control, treated, inhibition, significance) (Carcinogen: 7,12-DIMETHYLBENZ[A]ANTHRACENE, 57-97-6, Dose [Inhibitor]: 0.3% IN DIET, DAILY BEFORE, SIMULTANEOUS WITH, AND THROUGHOUT THE EXPERIMENT, LOW FAT DIET (STUDY DURATION: 32 WK), Route [Inhibitor]: ORAL, Species: RAT, Strain/Sex: SPRAGUE-DAWLEY/FEMALE, Target Tissue: Type of Lesion: MAMMARY GLAND: PARENCHYMAL CARCINOMA, Dose [Carcinogen]: 10 MG IN 1 ML CORN OIL AT 50 D OF AGE ONCE, Promoter: NONE USED): 13/30 (43%), 10/30 (33%), 23%, not calculated
tumour outcome (control, treated, inhibition, significance) (Carcinogen: 7,12-DIMETHYLBENZ[A]ANTHRACENE, 57-97-6, Dose [Inhibitor]: 0.3% IN HIGH POLYUNSATURATED FAT DIET DAILY STARTING 29 D BEFORE CARCINOGEN TREATMENT AND CONTINUING FOR THE DURATION OF, Route [Inhibitor]: ORAL, Species: RAT, Strain/Sex: SPRAGUE-DAWLEY/FEMALE, Target Tissue: Type of Lesion: MAMMARY GLAND: ADENOCARCINOMA, Dose [Carcinogen]: 10 MG IN 1 ML STRIPPED CORN OIL ONCE AT AGE 50 D, Promoter: NONE USED): 100%, 55%, 45%, not calculated
tumour outcome (control, treated, inhibition, significance) (Carcinogen: 7,12-DIMETHYLBENZ[A]ANTHRACENE, 57-97-6, Dose [Inhibitor]: 0.3% IN HIGH SATURATED FAT DIET DAILY STARTING 29 D BEFORE CARCINOGEN TREATMENT AND CONTINUING FOR THE DURATION OF THE S, Route [Inhibitor]: ORAL, Species: RAT, Strain/Sex: SPRAGUE-DAWLEY/FEMALE, Target Tissue: Type of Lesion: MAMMARY GLAND: ADENOCARCINOMA, Dose [Carcinogen]: 10 MG IN 1 ML STRIPPED CORN OIL ONCE AT AGE 50 D, Promoter: NONE USED): 65%, 35%, 46%, not calculated
tumour outcome (control, treated, inhibition, significance) (Carcinogen: 7,12-DIMETHYLBENZ[A]ANTHRACENE, 57-97-6, Dose [Inhibitor]: 0.3% IN LOW FAT DIET DAILY STARTING 29 D BEFORE CARCINOGEN TREATMENT AND CONTINUING FOR THE DURATION OF THE STUDY (STUDY, Route [Inhibitor]: ORAL, Species: RAT, Strain/Sex: SPRAGUE-DAWLEY/FEMALE, Target Tissue: Type of Lesion: MAMMARY GLAND: ADENOCARCINOMA, Dose [Carcinogen]: 10 MG IN 1 ML STRIPPED CORN OIL ONCE AT AGE 50 D, Promoter: NONE USED): 35%, 25%, 29%, not calculated
tumour outcome (control, treated, inhibition, significance) (Carcinogen: 7,12-DIMETHYLBENZ[A]ANTHRACENE, 57-97-6, Dose [Inhibitor]: 1 MG APPLIED ONCE 5 MIN BEFORE DMBA (STUDY DURATION 20 WK), Route [Inhibitor]: DERMAL, Species: MOUSE, Strain/Sex: CD-1/FEMALE, Target Tissue: Type of Lesion: SKIN: PAPILLOMA, Dose [Carcinogen]: 2.56 UG APPLIED ONCE 5 MIN AFTER INHIBITOR, Promoter: 12-O-TETRADECANOYLPHORBOL-13-ACETATE, 16561-29-8): 80%, 58%, 28%, not calculated
